Experiments:
HDAC-1 = target: T1, HDAC-1 (Homo sapiens, UniProt Q13547); assay: HDAC Inhibition Assay (purified GST-HDAC protein); format: biochemical
T1 construct: made in house; host or cells: Sf9 or Sf21 insect cells (baculovirus, donor vector pFB-GSTX3)
From the text: The baculovirus donor vector pFB-GSTX3 is used to generate a recombinant baculovirus that expresses the HDAC polypeptide. Transfer vectors containing the HDAC coding region are transfected into the DH10Bac cell line (GIBCO) and plated on selective agar plates. Colonies without insertion of the fusion sequence into the viral genome (carried by the bacteria) are blue. Single, white colonies are picked and viral DNAs (bacmid) are isolated from the bacteria by standard plasmid purification procedures. Sf9 cells or Sf21 (American Type Culture Collection) cells are then transfected in […] flasks with the viral DNA using Cellfectin reagent.
Virus-containing media is collected from the transfected cell culture and used for infection to increase its titer. Virus-containing media obtained after two rounds of infection is used for large-scale protein expression. For large-scale protein expression 100 cm^2 round tissue culture plates are seeded with 5×10^7 cells/plate and infected with 1 mL of virus-containing media (at an approximately MOI of 5). After 3 days, the cells are scraped off the plate and centrifuged at 500 rpm for 5 minutes. Cell pellets from 10-20, 100 cm^2 plates, are re-suspended in 50 mL of ice-cold lysis buffer (25 mM tris-HCl, pH 7.5, 2 mM EDTA, 1% NP-40, 1 mM DTT, 1 mM P MSF). The cells are stirred on ice for 15 minutes and then centrifuged at 5,000 rpms for 20 minutes.
The centrifuged cell lysate is loaded onto a 2 mL glutathione-sepharose column (Pharmacia) and is washed thrice with 10 mL of 25 mM tris-HCl, pH 7.5, 2 mM EDTA, 1 mM DTT, 200 mM NaCl. The GST-tagged proteins are then eluted by 10 applications (1 mL each) of 25 mM tris-HCl, pH 7.5, 10 mM reduced-glutathione, 100 mM NaCl, 1 mM DTT, 10% glycerol and stored at −70° C.
HDAC assays with purified GST-HDAC protein are carried out in a final volume of 30 μL containing 15 ng of GST-HDAC protein, 20 mM tris-HCl, pH 7.5, 1 mM MnCl2, 10 mM MgCl2, 1 mM DTT, 3 μg/mL poly(Glu,Tyr) 4:1, 1% DMSO, 2.0 μM ATP (γ-[^33P]-ATP 0.1 μCi). The activity is assayed in the presence or absence of inhibitors. The assay is carried out in 96-well plates at ambient temperature for 15 minutes under conditions described below and terminated by the addition of 20 μL of 125 mM EDTA. Subsequently, 40 μL of the reaction mixture are transferred onto EMMOBILON-PVDF membrane (Millipore) previously soaked for 5 minutes with methanol, rinsed with water, then soaked for 5 minutes with 0.5% H3PO4 and mounted on vacuum manifold with disconnected vacuum source. After spotting all samples, a vacuum is connected and each well-rinsed with 200 μL 0.5% H3PO4. Membranes are removed and washed four times on a shaker with 1.0% H3PO4, once with ethanol. Membranes are counted after drying at ambient temperature, mounting in Packard TopCount 96-well frame, and addition of 10 μL/well of MICROSCINT™ (Packard). IC50 values are calculated by linear regression analysis of the percentage inhibition of each compound in duplicate, at 4 concentrations (usually 0.01, 0.1, 1 and 10 μM).
• Input: 3×4 μL stopped assay on IMMOBILON membrane, not washed • Background (3 wells): assay with H2O instead of enzyme • Positive control (4 wells): 3% DMSO instead of compound • Bath control (1 well): no reaction mix
IC50 values are calculated by logarithmic regression analysis of the percentage inhibition of each compound at 4 concentrations (usually 3- or 10-fold dilution series starting at 10 μM). In each experiment, the actual inhibition by reference compound is used for normalization of IC50 values to the basis of an average value of the reference inhibitor:
Normalized IC50=measured IC50 average ref. IC50/measured ref. IC50

HCT116 = HCT116 IC50 (Table 2, no method described); format: cell-based; settings: Homo sapiens, HCT-116

T1 sequence (Q13547 whole entry, species assumed): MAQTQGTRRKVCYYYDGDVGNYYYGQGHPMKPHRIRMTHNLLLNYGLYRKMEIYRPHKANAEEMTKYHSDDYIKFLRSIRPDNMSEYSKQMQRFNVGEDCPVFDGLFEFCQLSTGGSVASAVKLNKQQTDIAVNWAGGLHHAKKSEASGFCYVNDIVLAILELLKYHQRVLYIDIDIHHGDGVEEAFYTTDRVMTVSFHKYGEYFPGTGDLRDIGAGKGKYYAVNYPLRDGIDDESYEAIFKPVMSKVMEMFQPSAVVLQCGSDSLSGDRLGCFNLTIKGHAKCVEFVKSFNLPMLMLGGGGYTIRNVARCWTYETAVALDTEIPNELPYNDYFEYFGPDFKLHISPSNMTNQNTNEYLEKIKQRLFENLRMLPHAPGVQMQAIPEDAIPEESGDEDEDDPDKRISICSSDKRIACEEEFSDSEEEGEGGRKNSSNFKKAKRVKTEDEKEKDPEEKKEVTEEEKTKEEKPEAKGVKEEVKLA

Q: For `O=C(/C=C/c1ccc(CN2CCC[C@H]2C(=O)N2CCc3ccccc32)cc1)NO` [Cpd 18, (E)-3-{4-[(S)-2-(2,3-Dihydro-indole-1-carbonyl)-pyrrolidin-1-ylmethyl]-phenyl}-N-hydroxy-acrylamide], which IC50 (HDAC-1) is on record?
A: 350 nM

Q: And the IC50 (HCT116)?
A: 7000 nM

Q: Which IC50 (HDAC-1) does the source give for `O=C(/C=C/c1ccc(CN2C[C@H](O)C[C@@H]2Cc2c[nH]c3ccccc23)cc1)NO` [Cpd 23, (E)-N-Hydroxy-3-{4-[(2S,4R)-4-hydroxy-2-(1H-indol-3-ylmethyl)-pyrrolidin-1-ylmethyl]-phenyl}-acrylamide] here?
A: 1.7 nM

Q: What about the IC50 (HCT116) of the same compound?
A: 8 nM

Q: `Cc1[nH]c2ccccc2c1C[C@H]1CCCN1Cc1ccc(/C=C/C(=O)NO)cc1` [Cpd 4, (E)-N-Hydroxy-3-{4-[(R)-2-(2-methyl-1H-indol-3-ylmethyl)-pyrrolidin-1-ylmethyl]-phenyl}-acrylamide] was tested. Which IC50 (HDAC-1) did it give?
A: 0.65 nM

Q: What about the IC50 (HCT116) of the same compound?
A: 0.4 nM

Q: Which results are given for `Cc1nn(C)c(C)c1C[C@H]1C[C@H](O)CN1Cc1ccc(/C=C/C(=O)NO)cc1` [Cpd 31, (E)-N-Hydroxy-3-{4-[(2S,4S)-4-hydroxy-2-(1,3,5-trimethyl-1H-pyrazol-4-ylmethyl)-pyrrolidin-1-ylmethyl]-phenyl}-acrylamide]?
A: IC50 (HDAC-1): 2 nM; IC50 (HCT116): 16 nM

Q: For `O=C(/C=C/c1ccc(CN2CCC[C@@H]2Cc2c[nH]c3ccccc23)c(F)c1)NO` [Cpd 9, (E)-3-{3-Fluoro-4-[(R)-2-(1H-indol-3-ylmethyl)-pyrrolidin-1-ylmethyl]-phenyl}-N-hydroxy-acrylamide], which IC50 (HDAC-1) is on record?
A: 1.3 nM

Q: What about the IC50 (HCT116) of the same compound?
A: 3 nM

Q: How did the IC50 (HDAC-1) turn out when `CO[C@H]1C[C@H](Cc2c(C)[nH]c3ccccc23)N(Cc2ccc(/C=C/C(=O)NO)cc2)C1` [Cpd 25, (E)-N-Hydroxy-3-{4-[(2S,4S)-4-methoxy-2-(2-methyl-1H-indol-3-ylmethyl)-pyrrolidin-1-ylmethyl]-phenyl}-acrylamide] was run?
A: 1.2 nM

Q: And the IC50 (HCT116)?
A: 0.4 nM

Q: What does the source list for `O=C(/C=C/c1ccc(CN2C[C@H](O)C[C@@H]2Cn2nc(C(F)(F)F)cc2C(F)(F)F)cc1)NO` [Cpd 52, (E)-3-{4-[(2R,4R)-2-(3,5-Bis-trifluoromethyl-pyrazol-1-ylmethyl)-4-hydroxy-pyrrolidin-1-ylmethyl]-phenyl}-N-hydroxy-acrylamide]?
A: IC50 (HDAC-1): 37 nM; IC50 (HCT116): 52 nM

Q: Which IC50 (HDAC-1) does the source give for `Cc1[nH]c2ccccc2c1C[C@H]1C[C@@H](O)CN1Cc1ccc(/C=C/C(=O)NO)cc1` [Cpd 20, (E)-N-Hydroxy-3-{4-[(2S,4R)-4-hydroxy-2-(2-methyl-1H-indol-3-ylmethyl)-pyrrolidin-1-ylmethyl]-phenyl}-acrylamide] here?
A: 0.6 nM

Q: What about the IC50 (HCT116) of the same compound?
A: 1 nM

— patent publication US20110060009A1, “Hydroxamate-Based Inhibitors of Deacetylases” (NOVARTIS AG, priority 2009, published 2011)
